In US20220105127A1, “METHODS FOR PROVIDING THE BENEFITS OF METHIONINE RESTRICTION WITHOUT DIETARY RESTRICTION” (priority 2020, published 2022):

Assays:
Format in all cases: in vivo, mouse
C57BL/6J mice [1] = assay: Experiment 2: high-fat diet with first compounds, body mass and inguinal/perigonadal fat pad mass; details: for Total Body Mass, Females / Inguinal Fat Mass, Females / Perigonadal Fat Mass, Females / Total Body Mass, Males / Inguinal Fat Mass, Males / Perigonadal Fat Mass, Males: high-fat diet 9 weeks, untreated = 100%, lysine 6.45%; for Total Body Mass, Females / Total Body Mass, Males: O-benzyl serine 4.3%, S-phenyl cysteine 4.3% of food; for Inguinal Fat Mass, Females / Perigonadal Fat Mass, Females / Inguinal Fat Mass, Males / Perigonadal Fat Mass, Males: OBS 4.3%, SPC 4.3% of food; for Total Body Mass, Males / Inguinal Fat Mass, Males / Perigonadal Fat Mass, Males: male mice; for Total Body Mass, Males: tryptophan dose not given
Method: (§1) Food and water were provided ad libitum.
(§2) Prior to blood collection, animals were fasted for 4 hours to establish a physiological baseline. Blood was then collected from the retro-orbital plexus and processed using EDTA-K2-coated blood collection tubes (Milian Dutscher Group; Geneva, Switzerland). The resulting plasma was frozen and stored at −80° C. until used for analysis. A portion of each blood sample was used for blood glucose determination using an Abbott Freestyle Lite glucometer and glucose strips (Abbott Diabetes Care, Inc.; Alameda, Calif.). At the end of each study, animals were fasted and bled, as described above. The mice were then sacrificed, their overall body condition was assessed, and certain physiological parameters were measured. The inguinal and perigonadal fat pads, as well as liver of each mouse, were harvested by surgical resection, weighed, flash frozen, and stored at −80° C.

plasma glucose [2] = assay: Experiment 2: high-fat diet with first compounds, plasma glucose; details: for Plasma Glucose, Females / Plasma Glucose, Males: high-fat diet 9 weeks, untreated = 100%, lysine 6.45%, OBS 4.3%, SPC 4.3% of food; for Plasma Glucose, Males: male mice
Method: as §1
as §2, with “Body mass and food consumption were monitored once a week for sixteen weeks. Prior” for “Prior”

insulin [3] = assay: Experiment 2: high-fat diet with first compounds, plasma insulin ELISA; details: for Plasma Insulin, Females / Plasma Insulin, Males: high-fat diet 9 weeks, untreated = 100%, lysine 6.45%, OBS 4.3%, SPC 4.3% of food; for Plasma Insulin, Males: male mice
Method: as §1
as §2, with “Body mass and food consumption were monitored once a week for sixteen weeks. Prior” for “Prior”
(§3) Enzyme-linked immunosorbent assay (ELISA) kits were obtained commercially and used to measure plasma levels of IGF-1 (R&D Systems; Minneapolis, Minn.), adiponectin (R&D Systems), FGF-21 (Millipore Corp.; Billerica, Mass.), leptin (R&D Systems), growth hormone (Millipore Corp.), and insulin (ALPCO Diagnostics; Salem, N.H.). Tests were performed according to the manufacturers' recommendations and measured using a Molecular Devices SpectraMax M5 Microplate Reader (Molecular Devices LLC; San Jose, Calif.). Two technical replicates were performed for each sample and the statistical significance of the resulting values determined by unpaired two-tailed t-tests using the software package Prism 8 (Graph-Pad Software; La Jolla, Calif.).

IGF-1 [4] = assay: Experiment 2: high-fat diet with first compounds, plasma IGF-1 ELISA; details: for Plasma IGF-1, Females / Plasma IGF-1, Males: high-fat diet 9 weeks, untreated = 100%, lysine 6.45%, OBS 4.3%, SPC 4.3% of food; for Plasma IGF-1, Males: male mice
Method: as §1
as §2, with “Body mass and food consumption were monitored once a week for sixteen weeks. Prior” for “Prior”
as §3

leptin [5] = assay: Experiment 2: high-fat diet with first compounds, plasma leptin ELISA; details: for Plasma Leptin, Females / Plasma Leptin, Males: high-fat diet 9 weeks, untreated = 100%, lysine 6.45%, OBS 4.3%, SPC 4.3% of food; for Plasma Leptin, Males: male mice
Method: as §1
as §2, with “Body mass and food consumption were monitored once a week for sixteen weeks. Prior” for “Prior”
as §3

adiponectin [6] = assay: Experiment 2: high-fat diet with first compounds, plasma adiponectin ELISA; details: high-fat diet 9 weeks, untreated = 100%, lysine 6.45%, OBS 4.3%, SPC 4.3% of food; for Plasma Adiponectin, Females: female mice; for Plasma Adiponectin, Males: male mice
Method: as §1
as §2, with “Body mass and food consumption were monitored once a week for sixteen weeks. Prior” for “Prior”
as §3

FGF-21 [7] = assay: Experiment 2: high-fat diet with first compounds, plasma FGF-21 ELISA; details: untreated = 100%; for Plasma FGF-21, Females: female mice, high-fat diet 9 weeks, lysine 6.45%, OBS 4.3%, SPC 4.3% of food
Method: as §1
as §2, with “Body mass and food consumption were monitored once a week for sixteen weeks. Prior” for “Prior”
as §3

C57BL/6J mice [8] = assay: Experiment 1: high-fat diet with selenium compounds, body mass, fat pad and liver mass; details: high-fat diet, untreated = 100%, sodium selenite 0.0073% of food, selenomethionine 0.0036% or 0.0073% (which not stated)
Method: (§4) All animal studies conducted were approved by the Institutional Animal Care and Use Committee (IACUC) of the Orentreich Foundation for the Advancement of Science, Inc. (Permit Number: 0511 MB). C57BL/6J mice (stock number 000664) were purchased from the Jackson Laboratories (Bar Harbor, Me.) and housed in a conventional animal facility maintained at 20±2° C., 50±10% relative humidity, with a 12 hr/12 hr light/dark photoperiod. Food and water were provided ad libitum. Upon arrival, mice were acclimatized for up to one week and fed Purina Lab Chow 5001 (Ralston Purina, Co.; St. Louis, Mo.).
At the beginning of the experiment, the mice were divided into 5 groups with each group being fed one of five isocaloric (5.3 kcal/gm) high-fat diets ad libitum for several weeks. Each high-fat diet comprising a base of 12% kcal protein, 31% kcal carbohydrate, and 57% kcal fat. The first group's diet was the control-fed diet and included the base and methionine in an amount that represented about 0.86% of the weight of the food (sometimes referred to as “control group,” “control-fed group,” or “group 1”). The second group's diet was the methionine-restricted group where the base-diet was restricted to 0.12% methionine as a percentage of the total weight of the food (sometimes referred to as “methionine-restricted group” or “group 2”). The third group was fed the base diet containing 0.86% methionine, which was supplemented with sodium selenite in an amount representing 0.0073% of the total weight of the food (sometimes referred to as “sodium selenite-supplemented group” or “group 3”). The fourth group was fed the base diet containing 0.86% methionine, supplemented with 0.0036% selenomethionine, as a percentage of the total food weight (sometimes referred to as “group 4”). The fifth group was fed the base diet containing 0.86% methionine as a percentage of the total weight of the food, supplemented with 0.0073% selenomethionine as a percentage of the total weight of the food (sometimes referred to as “group 5”). Amounts of selenium-containing compounds used for this and subsequent experiments were determined from pilot studies aimed at identifying minimal doses that still achieve high efficacy. […] The amount of selenomethionine administered to the animals in the fourth and fifth groups was approximately 1/200 and 1/100 times respectively, of the levels of sulfur-containing amino acids (i.e., methionine and cysteine) present in the subjects' diets.
as §2, with “Body mass and food consumption were monitored once a week for sixteen weeks. Prior” for “Prior”

plasma glucose [9] = assay: Experiment 1: high-fat diet with selenium compounds, plasma glucose; details: untreated = 100%, sodium selenite 0.0073% of food
Method: as §4
(§5) At the beginning of the experiment, the mice were divided into 5 groups with each group being fed one of five isocaloric (5.3 kcal/gm) high-fat diets ad libitum for several weeks. Each high-fat diet comprising a base of 12% kcal protein, 31% kcal carbohydrate, and 57% kcal fat. […] Amounts of selenium-containing compounds used for this and subsequent experiments were determined from pilot studies aimed at identifying minimal doses that still achieve high efficacy. […]
(§6) Body mass and food consumption were monitored once a week for sixteen weeks. […] The mice were then sacrificed, their overall body condition was assessed, and certain physiological parameters were measured. […]

insulin [10] = assay: Experiment 1: high-fat diet with selenium compounds, plasma insulin ELISA; details: untreated = 100%, sodium selenite 0.0073% of food
Method: as §4, §5, §6

IGF-1 [11] = assay: Experiment 1: high-fat diet with selenium compounds, plasma IGF-1 ELISA; details: sodium selenite 0.0073% of food
Method: as §4
(§7) At the beginning of the experiment, the mice were divided into 5 groups with each group being fed one of five isocaloric (5.3 kcal/gm) high-fat diets ad libitum for several weeks. Each high-fat diet comprising a base of 12% kcal protein, 31% kcal carbohydrate, and 57% kcal fat. The first group's diet was the control-fed diet and included the base and methionine in an amount that represented about 0.86% of the weight of the food (sometimes referred to as “control group,” “control-fed group,” or “group 1”). […] Amounts of selenium-containing compounds used for this and subsequent experiments were determined from pilot studies aimed at identifying minimal doses that still achieve high efficacy. […]
as §6
as §3, with “Two technical replicates were performed for each sample and the statistical significance of the resulting values determined by unpaired two-tailed t-tests using the software package Prism 8 (Graph-Pad Software; La Jolla, Calif.).” left out

leptin [12] = assay: Experiment 1: high-fat diet with selenium compounds, plasma leptin ELISA
Method: as §4, §7, §6
as §3, with “Two technical replicates were performed for each sample and the statistical significance of the resulting values determined by unpaired two-tailed t-tests using the software package Prism 8 (Graph-Pad Software; La Jolla, Calif.).” left out

adiponectin [13] = assay: Experiment 1: high-fat diet with selenium compounds, plasma adiponectin ELISA; details: untreated = 100%, sodium selenite 0.0073% of food
Method: as §4, §5, §6

FGF-21 [14] = assay: Experiment 1: high-fat diet with selenium compounds, plasma FGF-21 ELISA; details: untreated = 100%, sodium selenite 0.0073% of food
Method: as §4, §5, §6

[15] = female mice, 4.3% S-phenyl cysteine, high-fat diet, 9 week interval, p<0.001 vs untreated
[16] = female mice, 4.3% S-phenyl cysteine, high-fat diet, 9 week interval

Structure (SMILES) | Total Body Mass, Females (C57BL/6J mice [1]; female mice) | Inguinal Fat Mass, Females (C57BL/6J mice [1]; female mice) | Perigonadal Fat Mass, Females (C57BL/6J mice [1]; female mice) | Total Body Mass, Males (C57BL/6J mice [1]) | Inguinal Fat Mass, Males (C57BL/6J mice [1]) | Perigonadal Fat Mass, Males (C57BL/6J mice [1]) | Plasma Glucose, Females (plasma glucose [2]; female mice) | Plasma Glucose, Males (plasma glucose [2]) | Plasma Insulin, Females (insulin [3]; female mice) | Plasma Insulin, Males (insulin [3]) | Plasma IGF-1, Females (IGF-1 [4]; female mice) | Plasma IGF-1, Males (IGF-1 [4]) | Plasma Leptin, Females (leptin [5]; female mice) | Plasma Leptin, Males (leptin [5]) | Plasma Adiponectin, Females (adiponectin [6]) | Plasma Adiponectin, Males (adiponectin [6]) | Plasma FGF-21, Females (FGF-21 [7]) | further results
N[C@@H](COCc1ccccc1)C(=O)O [O-Benzyl-Serine, O-benzyl serine] | 69% | 27% | 25% | 89% | 42% | 31% | 71% | 93% | 37% | 28% | 79% | 72% | 20% | 12% | 106% | 108% | 280% | 
O=[Se](O)O [Sodium Selenite, sodium selenite] |  |  |  |  |  |  |  |  |  |  |  |  |  |  |  |  |  | Inguinal Fat Mass, Females (C57BL/6J mice [8]; female mice): 19%; Perigonadal Fat Mass, Females (C57BL/6J mice [8]; female mice): 20%; Total Body Mass, Females (C57BL/6J mice [8]; female mice, 16 weeks): 66%; Inguinal Fat Mass, Males (C57BL/6J mice [8]; male mice): 17%; Perigonadal Fat Mass, Males (C57BL/6J mice [8]; male mice): 20%; Total Body Mass, Males (C57BL/6J mice [8]; male mice, 16 weeks): 60%; Plasma Glucose, Females (plasma glucose [9]; female mice): 69%; Plasma Glucose, Males (plasma glucose [9]; male mice): 71%; Plasma Insulin, Females (insulin [10]; female mice): 25%; Plasma Insulin, Males (insulin [10]; male mice): 19%; Plasma IGF-1, Females (IGF-1 [11]; female mice, untreated = 100%): 35%; Plasma IGF-1, Males (IGF-1 [11]; male mice, untreated = 100%): 63%; reduction of plasma IGF-1 levels as compared with control values (IGF-1 [11]; at the conclusion of experiment 1): 37%; Plasma Leptin, Females (leptin [12]; female mice, high-fat diet, untreated = 100%, sodium selenite 0.0073% of food): 17%; Plasma Leptin, Males (leptin [12]; male mice, high-fat diet, untreated = 100%, sodium selenite 0.0073% of food): 4%; reduction in circulating leptin as compared with controls (leptin [12]; male mice, sodium selenite-supplemented high-fat diet for 16 weeks): 96%; Plasma Adiponectin, Females (adiponectin [13]; female mice): 134%; Plasma Adiponectin, Males (adiponectin [13]; male mice): 128%; Plasma FGF-21, Females (FGF-21 [14]; female mice): 3971%; Plasma FGF-21, Males (FGF-21 [14]; male mice): 3045%
NCCCC[C@H](N)C(=O)O [Lysine, lysine] | 72% | 38% | 37% | 91% | 42% | 34% | 73% | 84% | 41% | 22% | 66% | 68% | 28% | 13% | 125% | 92% | 144% | 
N[C@@H](CSc1ccccc1)C(=O)O [S-Phenyl-Cysteine, S-phenyl cysteine] | 71% | 23% | 25% | 87% | 44% | 35% | 71% | 70% | 32% | 25% | 72% | 66% | 16% | 11% | 100% | 213% | 181% | accumulation of inguinal and perigonadal adipose tissue (FIGS. 6A, 6B) (C57BL/6J mice [1]; [15]): robust protection against the accumulation of adipose tissue; total weight gain (FIG. 5) (C57BL/6J mice [1]; [15]): robust prevention of total weight gain; plasma glucose level over time (FIG. 7A) (plasma glucose [2]; female mice, 4.3% S-phenyl cysteine, high-fat diet, 9 week interval, more efficacious than methionine restriction): maintenance of low plasma glucose; plasma insulin level over time (FIG. 7B) (insulin [3]; [16]): maintenance of low insulin levels; plasma IGF-1 level over time (FIG. 8A) (IGF-1 [4]; [16]): sustained reductions of plasma IGF-1 levels; plasma leptin level over time (FIG. 8B) (leptin [5]; [16]): maintenance of low plasma leptin levels
N[C@@H](Cc1c[nH]c2ccccc12)C(=O)O [Tryptophan, tryptophan] |  |  |  | 85% | 50% | 39% |  | 94% |  | 56% |  | 73% |  | 18% |  | 118% |  | Plasma FGF-21, Males (FGF-21 [7]; male mice, high-fat diet, tryptophan dose not given): 502%
